Data from patent US20040048380A1, “Chimeric vectors and their use for heterologous genes transfer” (priority 2003, published 2004).

Key:
[1] = test system: HeLa cells; experiment: Phage micropanning, internalization (37° C.), with or without kinase inhibitors; format: cell-based; conditions: Wortammannin 1 μM, ML-7 2 μM, FIG. 4
Source text: FIG. 4. Effect of the inhibitors of Wortammanin and ML-7 kinases on cell internalization. 10^12 particles of ΔPb phage (white bars) or of Pb phage (striped bars) are adsorbed on HeLa cells. The internalized phage is recovered and titrated. […] Data are shown as percentages of control enrichments carried out without inhibitors. Th results are average values of three different tests carried out in two series; SD (Standard Deviation) is also shown.
The micropanning on HeLa and CS-1 or CS-1/β3 cells was carried out […] at 4° C. and at 37° C. in order to quantify the bond and the internalization of chimeric phages, respectively. […] The eluates were titrated by ELISA on a plate coated with an anti-M13 antibody detected with anti-pVIII-HRP antibody, using as standard a phage stock with known titer.
Phage internalization was evaluated on cells which have been pre-incubated for 30′ at 37° C. with chlorokine 100 nM (Sigma) alone or together with an inhibitor of PI3K (phosphatidylinositol-3OH kinase), 1 μM Wortammannin (Sigma) or with an inhibitor of myosin light chain kinase ML-7 2 μM hydrochloride (Calbiochem, La Jolla, Calif.). […]
In short, the experiment was carried out as follows: 7.5×10^4 cells/well are plated and incubated with 10^12 chimeric phage particles. The results are expressed as enrichment factors with respect to control phages. […]

[2] = test system: HeLa cells; experiment: Transduction efficiency by GFP reporter gene expression (FACS); format: cell-based; conditions: peptide 4.86 μM, molar excess of about 2000 times; FIG. 5b
Description: FIG. 5. Chimeric phages transduce eukaryotic cells in a receptor-dependent way. Cells are incubated for 1 hour at 4° C. and for 3 hours at 37° C. with 2×10^13 particles of Pb-GFP phage or ΔPb-GFP phage. After 72 hours said cells are analyzed with FACS. For competition tests they are pre-incubated with GRGDSP or GRGESP peptides (4.86 μM, corresponding to a molar excess of about 2000 times) for 1 hour at 4° C. and then incubated with chimeric phages. Data are analyzed with WinMDI2.8 software. 10^4 cells for each well are counted. a) White bars correspond to ΔPb-GFP phages; b) striped bars correspond to Pb-GFP b) phage.
The expression of GFP reporter gene (Green Fluorescent Protein) was carried out by FACS analysis as follows: 1×10^5 cells (HeLa, Cs-1/β3 or Cs-1) were plated in 6-portion wells. […] After the washings and 72 hours of incubation in fresh medium the expression levels of GFP protein were measured by FACS. The specificity of the measured signal was evaluated also in presence of GRGDSP or GRGESP peptides, pre-incubating the cells for 1 hour, with peptide concentration of 4.86 μM, corresponding to a molar excess of about 2000 times and maintaining said concentrations in the following incubations. 10^4 cells were measured for each sample. […]

| Molecule | effect of kinase inhibitor on internalization of Pb and ΔPb chimeric phages [1] | inhibition of the transduction of HeLa cells by ΔPb-GFP phage [2] |
| --- | --- | --- |
| COC[C@H]1OC(=O)c2coc3c2[C@@]1(C)C1=C(C3=O)[C@@H]2CCC(=O)[C@@]2(C)C[C@H]1OC(C)=O [Wortammannin] | inhibited |  |
| GRGESP |  | not observed |
| GRGDSP |  | up to 90% |
| O=S(=O)(c1cccc2c(I)cccc12)N1CCCNCC1 [ML-7] | not |  |
